Laboratory results reported in US12024510B2, “Pyrazolopyridine-diamides, their use as insecticide and processes for preparing the same” (PI INDUSTRIES LTD., priority 2017, dated 2024).

How the values were obtained:
Assay type in all cases: in vivo
[1] = system: Helicoverpa armigera; test: Helicoverpa armigera diet incorporation method; conditions: third instar larvae, dead and moribund combined, 96 h after release
Method in brief: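 Third-instar larvae, starved, were placed singly on diet pieces containing test dispersion (bead-milled in surfactant, particles under 2 μm, 500 ppm stock then diluted). Trays kept at 25° C. and 70% RH; mortality counted at 96 h, moribund larvae counted with dead.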

[2] = system: Spodoptera litura; test: Spodoptera litura diet incorporation method; conditions: third instar larvae, dead and moribund combined, 96 h after release
Method in brief: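 Compound milled to <2 μm average particle size in surfactant, dispersed in water (500 ppm stock dispersion), then mixed into semi-synthetic diet at ~50° C. One starved third-instar larva per diet cell, 25° C, 70% RH; percent mortality (dead plus moribund) scored at 96 h.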

[3] = system: Plutella xylostella; test: whole plant or invertebrate; conditions: foliar, cabbage leaf dip, second instar larvae, dead and moribund combined, 72 h after release
Method in brief: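 Leaf-dip bioassay: second-instar larvae, singly, fed on cabbage leaves dipped 10 s in test dispersion (bead-milled, diluted with 0.01% Triton-X to test concentration) and dried 20 min. Held at 25 °C, 70% RH; % mortality counts dead and moribund at 72 h.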

Measured: mortality at 300 ppm

Cc1cc2ccnn2c(C(=O)NC(C)C)c1NC(=O)c1cc(Oc2cc(C(F)(F)F)nn2C)nn1-c1ncccc1Cl [Compound 71, 6-(1-(3-chloropyridin-2-yl)-3-((1-methyl-3-(trifluoromethyl)-1H-pyrazol-5-yl)oxy)-1H-pyrazole-5-carboxamido)-N-isopropyl-5-methylpyrazolo[1,5-a]pyridine-7-carboxamide]
> 70%: all assays above

Cc1cc2ccnn2c(C(=O)NCC2CC2)c1NC(=O)c1cc(OC2CSC2)nn1-c1ncccc1Cl [Compound 72, 6-(1-(3-chloropyridin-2-yl)-3-(thietan-3-yloxy)-1H-pyrazole-5-carboxamido)-N-(cyclopropylmethyl)-5-methylpyrazolo[1,5-a]pyridine-7-carboxamide]
> 70%: all assays above

CCNC(=O)c1c(NC(=O)c2cc(Br)nn2-c2ncccc2Cl)c(Br)cc2ccnn12 [Compound 76, 5-bromo-6-(3-bromo-1-(3-chloropyridin-2-yl)-1H-pyrazole-5-carboxamido)-N-ethylpyrazolo[1,5-a]pyridine-7-carboxamide]
> 70%: all assays above

CONC(=O)c1c(NC(=O)c2cc(Br)nn2-c2ncccc2Cl)c(Br)cc2ccnn12 [Compound 87, 5-bromo-6-(3-bromo-1-(3-chloropyridin-2-yl)-1H-pyrazole-5-carboxamido)-N-methoxypyrazolo[1,5-a]pyridine-7-carboxamide]
> 70%: all assays above

CC(C)NC(=O)c1c(NC(=O)c2cc(Br)nn2-c2ncccc2Cl)c(Br)cc2ccnn12 [Compound 91, 5-bromo-6-(3-bromo-1-(3-chloropyridin-2-yl)-1H-pyrazole-5-carboxamido)-N-isopropylpyrazolo[1,5-a]pyridine-7-carboxamide]
> 70%: all assays above

CONC(=O)c1c(NC(=O)c2cc(C(F)(F)F)nn2-c2ncccc2Cl)c(C)cc2ccnn12 [Compound 93, 6-(1-(3-chloropyridin-2-yl)-3-(trifluoromethyl)-1H-pyrazole-5-carboxamido)-N-methoxy-5-methylpyrazolo[1,5-a]pyridine-7-carboxamide]
> 70%: all assays above

Cc1cc2ccnn2c(C(=O)NC(C)C2CC2)c1NC(=O)c1cc(Br)nn1-c1ncccc1Cl (stereo not drawn) [Compound 95, 6-(3-bromo-1-(3-chloropyridin-2-yl)-1H-pyrazole-5-carboxamido)-N-(1-cyclopropylethyl)-5-methylpyrazolo[1,5-a]pyridine-7-carboxamide]
> 70%: all assays above

Cc1cc2ccnn2c(C(=O)NCC(F)(F)F)c1NC(=O)c1cc(Br)nn1-c1ncccc1Cl [Compound 96, 6-(3-bromo-1-(3-chloropyridin-2-yl)-1H-pyrazole-5-carboxamido)-5-methyl-N-(2,2,2-trifluoroethyl)pyrazolo[1,5-a]pyridine-7-carboxamide]
> 70%: all assays above

COc1cc(C(=O)Nc2c(C)cc3ccnn3c2C(=O)NC(C)C2CC2)n(-c2ncccc2Cl)n1 (stereo not drawn) [Compound 99, 6-(1-(3-chloropyridin-2-yl)-3-methoxy-1H-pyrazole-5-carboxamido)-N-(1-cyclopropylethyl)-5-methylpyrazolo[1,5-a]pyridine-7-carboxamide]
> 70%: all assays above

C#CCNC(=O)c1c(NC(=O)c2cc(C(F)(F)F)nn2-c2ncccc2Cl)c(C)cc2ccnn12 [Compound 108, 6-(1-(3-chloropyridin-2-yl)-3-(trifluoromethyl)-1H-pyrazole-5-carboxamido)-5-methyl-N-(prop-2-yn-1-yl)pyrazolo[1,5-a]pyridine-7-carboxamide]
> 70%: all assays above

Cc1cc2ccnn2c(C(=O)NCC(F)(F)F)c1NC(=O)c1cc(C(F)(F)F)nn1-c1ncccc1Cl [Compound 109, 6-(1-(3-chloropyridin-2-yl)-3-(trifluoromethyl)-1H-pyrazole-5-carboxamido)-5-methyl-N-(2,2,2-trifluoroethyl)pyrazolo[1,5-a]pyridine-7-carboxamide]
> 70%: all assays above

COc1cc(C(=O)Nc2c(Br)cc3ccnn3c2C(=O)NC(C)(C)C)n(-c2ncccc2Cl)n1 [Compound 119, 5-bromo-N-(tert-butyl)-6-(1-(3-chloropyridin-2-yl)-3-methoxy-1H-pyrazole-5-carboxamido)pyrazolo[1,5-a]pyridine-7-carboxamide]
> 70%: all assays above

Cc1cc2ccnn2c(C(=O)NC(C)C2CC2)c1NC(=O)c1cc(C(F)(F)F)nn1-c1ncccc1Cl (stereo not drawn) [Compound 126, 6-(1-(3-chloropyridin-2-yl)-3-(trifluoromethyl)-1H-pyrazole-5-carboxamido)-N-(1-cyclopropylethyl)-5-methylpyrazolo[1,5-a]pyridine-7-carboxamide]
> 70%: all assays above

COc1cc(C(=O)Nc2c(Cl)cc3ccnn3c2C(=O)NC2CC2)n(-c2ncccc2Cl)n1 [Compound 132, 5-chloro-6-(1-(3-chloropyridin-2-yl)-3-methoxy-1H-pyrazole-5-carboxamido)-N-cyclopropylpyrazolo[1,5-a]pyridine-7-carboxamide]
> 70%: all assays above

COc1cc(C(=O)Nc2c(Cl)cc3ccnn3c2C(=O)NC(C)C)n(-c2ncccc2Cl)n1 [Compound 133, 5-chloro-6-(1-(3-chloropyridin-2-yl)-3-methoxy-1H-pyrazole-5-carboxamido)-N-isopropylpyrazolo[1,5-a]pyridine-7-carboxamide]
> 70%: all assays above

CCNC(=O)c1c(NC(=O)c2cc(OC)nn2-c2ncccc2Cl)c(Cl)cc2ccnn12 [Compound 134, 5-chloro-6-(1-(3-chloropyridin-2-yl)-3-methoxy-1H-pyrazole-5-carboxamido)-N-ethylpyrazolo[1,5-a]pyridine-7-carboxamide]
> 70%: all assays above

CNC(=O)c1c(NC(=O)c2cc(OC)nn2-c2ncccc2Cl)c(Cl)cc2ccnn12 [Compound 135, 5-chloro-6-(1-(3-chloropyridin-2-yl)-3-methoxy-1H-pyrazole-5-carboxamido)-N-methylpyrazolo[1,5-a]pyridine-7-carboxamide]
> 70%: all assays above

COc1cc(C(=O)Nc2c(Cl)cc3ccnn3c2C(=O)NCC(F)(F)F)n(-c2ncccc2Cl)n1 [Compound 137, 5-chloro-6-(1-(3-chloropyridin-2-yl)-3-methoxy-1H-pyrazole-5-carboxamido)-N-(2,2,2-trifluoroethyl)pyrazolo[1,5-a]pyridine-7-carboxamide]
> 70%: all assays above

CC(C)NC(=O)c1c(NC(=O)c2cc(Br)nn2-c2ncccc2Cl)c(Cl)cc2ccnn12 [Compound 138, 6-(3-bromo-1-(3-chloropyridin-2-yl)-1H-pyrazole-5-carboxamido)-5-chloro-N-isopropylpyrazolo[1,5-a]pyridine-7-carboxamide]
> 70%: all assays above

CCCCNC(=O)c1c(NC(=O)c2cc(Br)nn2-c2ncccc2Cl)c(Cl)cc2ccnn12 [Compound 139, 6-(3-bromo-1-(3-chloropyridin-2-yl)-1H-pyrazole-5-carboxamido)-N-butyl-5-chloropyrazolo[1,5-a]pyridine-7-carboxamide]
> 70%: all assays above

O=C(Nc1c(Cl)cc2ccnn2c1C(=O)NCC1CC1)c1cc(Br)nn1-c1ncccc1Cl [Compound 140, 6-(3-bromo-1-(3-chloropyridin-2-yl)-1H-pyrazole-5-carboxamido)-5-chloro-N-(cyclopropylmethyl)pyrazolo[1,5-a]pyridine-7-carboxamide]
> 70%: all assays above

C#CCNC(=O)c1c(NC(=O)c2cc(Br)nn2-c2ncccc2Cl)c(Cl)cc2ccnn12 [Compound 141, 6-(3-bromo-1-(3-chloropyridin-2-yl)-1H-pyrazole-5-carboxamido)-5-chloro-N-(prop-2-yn-1-yl)pyrazolo[1,5-a]pyridine-7-carboxamide]
> 70%: all assays above

CNC(=O)c1c(NC(=O)c2cc(Br)nn2-c2ncccc2Cl)c(Cl)cc2ccnn12 [Compound 148, 6-(3-bromo-1-(3-chloropyridin-2-yl)-1H-pyrazole-5-carboxamido)-5-chloro-N-methylpyrazolo[1,5-a]pyridine-7-carboxamide]
> 70%: all assays above
